Entries after “also recorded” stand apart in the source; their conditions may differ.
How the values were obtained:
[1] = in vitro stability in CES1−/− mouse plasma; assay type: in vitro ADME; settings: CES1−/− mouse plasma, 10 μM, 37° C.
Procedure: All synthesized prodrugs were next screened for in vitro stability in carboxylesterase 1 knockout (CES1^−/−) mouse plasma, as well as CES1^−/− mouse brain and liver homogenates (Table 2-1). We have previously reported that CES1^−/− mouse model recapitulates human prodrug metabolism. Tenora et al., 2019.
Zimmermann et al., 2018. For the tissue homogenates, washed tissues were diluted 10-fold in 0.1 M potassium phosphate buffer and homogenized using a probe sonicator. To evaluate the stability of the intact prodrug over time, each of the crude homogenates and plasma were aliquoted to 1 mL and then spiked with a final assay concentration of 10 μM of each prodrug followed by incubation in an orbital shaker at 37° C. for 1 h (in triplicate). Sample from each incubation at predetermined time points (0 min, and 1 h) was quenched with three volumes of acetonitrile containing the internal standard (IS; losartan: 0.5 μm). Samples were vortex-mixed for 30 secs and centrifuged at 10,000×g for 10 min at 4° C. Disappearance of intact prodrugs from these samples were performed on a Dionex ultra-high-performance LC system coupled with Q Exactive Focus orbitrap mass spectrometer (Thermo Fisher Scientific Inc., Waltham MA). The separation of analytes was achieved using the Agilent Eclipse Plus column (100×2.1 mm i.d.; maintained at 35° C.) packed with a 1.8 μm C18 stationary phase. The mobile phase consisted of 0.1% formic acid in water and 0.1% formic acid in acetonitrile. Pumps were operated at a flow rate of 0.4 mL/min for 9 min using gradient elution. The mass spectrometer controlled by Xcalibur software 4.0.27.13 (Thermo Scientific) was operated with a heated electrospray ionization (HESI) ion source in positive ionization mode. Quantification of the prodrugs were performed in the full-scan mode (from m/z 50 to 1600) by comparing t=0 samples with t=60 min samples.

[2] = system: IL-1β-induced release of GFP+ EVs into plasma; assay: EV release in vivo, IL-1β mouse model of acute brain injury; settings: P18 3 and 10 mg/kg DPTIP equivalent PO 30 min before intrastriatal IL-1β; 4 h
Excerpt: We have previously reported that nSMase2 regulates the secretion of extracellular vesicles from astrocytes in response to a focal inflammatory brain lesion. Rojas et al., 2018. Striatal injection of IL-1β in mice expressing GFAP-EGFP in astroglia evokes the release of GFP-labelled EVs that rapidly enter into plasma and target multiple organ systems. Dickens et al., 2017. We used this mouse model to evaluate the ability of P18 to inhibit EV release by the inhibition of nSMase2 activity in vivo. […] Interleukin-1β-injected mice, orally pre-dosed with P18 (30 min prior) were euthanized 4-hours post-IL-1β injection. GFP labeled (GFP+) EVs were quantified in plasma and nSMase2 activity was measured in the brain striata.
Striatal injections and EV measurements were performed as previously described by our group. Dickens et al., 2017; Mccluskey et al., 2008. […] Mice subjected to intrastriatal injection of IL-1β were also injected with the NSAID carprofen (rimadyl, 5 mg/kg. i.p.) and closely monitored during recovery; no adverse reactions were observed. […] Quantitation of Plasma EVs: Dynabeads M-450) Epoxy (Invitrogen) were coupled with anti-GFP antibody (Thermo Fisher) at a ratio of 200-μg antibody per 4×10^8 beads. […] The concentration of immunoprecipitated GFP+ EVs was quantified using ZetaView nanoparticle tracking analysis (Particle Metrix) and corresponding ZetaView software (8.05.14.SP7). […]

## CCC1CC(N2CCCCC2)CC(CC)N1C(=O)Oc1c(OC)cc(-c2nc(-c3ccccc3)c(-c3cccs3)[nH]2)cc1OC (centres unmarked) [Compound P18, 2,6-Dimethoxy-4-(5-phenyl-4-(thiophen-2-yl)-1H-imidazol-2-yl)phenyl 2′,6′-diethyl-[1,4′-bipiperidine]-1′-carboxylate]
[1]
  Stability in mouse (% remaining at 1h) Mean + Std Error, Plasma: 92 ± 7%
[2]
  IL-1β-induced release of GFP+ EVs into plasma: significantly inhibited IL-1β-induced EV release into plasma; also recorded: inhibited the release of brain derived GFP+ EVs into blood at both 3 and 10 mg/kg; also recorded: significant inhibition
